Results published in US20260216074A1, “USE OF PACLITAXEL CATIONIC LIPOSOME IN TREATING TUMORS” (CSPC ZHONGQI PHARMACEUTICAL TECHNOLOGY (SHIJIAZHUANG) CO., …, priority 2023, published 2026).
Marks after values point to notes of the source that are not given here.

Tests used:
[1] = system: human pancreatic cancer CFPAC-1 xenografts; experiment: Inhibitory effect on human pancreatic cancer CFPAC-1 xenografts in mice; type: in vivo, human cells in female Nu/Nu nude mice
Experimental: Experimental animal: female Nu/Nu nude mice provided by Beijing Vital River Laboratory Animal Technology Co., Ltd.
Experimental method: Female Nu/Nu nude mice were subcutaneously inoculated with human pancreatic cancer CFPAC-1 cells. 5 days after inoculation, the mice were divided into 7 groups when the mean tumor volume was 228 mm^3 (d0), namely, the vehicle control group (5% glucose injection), the 6 mg/kg of A1 group, the 3 mg/kg or 6 mg/kg of A1+20 mg/kg of gemcitabine for injection (GEM) group, the 6 mg/kg of paclitaxel injection (Taxol) group, the 6 mg/kg of Taxol+20 mg/kg of GEM group, and the 20 mg/kg of GEM group, respectively. There were 10 mice in each group. Drugs were administered intravenously (except that the GEM was administered intraperitoneally for 5 times (at the first five time points)) at d0, d3, d6, d9, d13, and d16 for a total of 6 times. After the last administration, the mice were further observed for 11 d (i.e. d27) and the experiment was terminated. During the experiment, the body weight and tumor volume of animals were monitored twice a week, and the tumor volume (TV) was calculated. At the end of the experiment, the tumor weight was weighed and the tumor weight inhibition rate was calculated.
Methods for drug preparation: A1 was prepared using the same method as in Example 2. The gemcitabine for injection was dissolved in saline to achieve the desired concentration. Paclitaxel injection (Taxol) was diluted with saline to the desired concentration.

[2] = system: prostate cancer RM-1 allografts; experiment: Inhibitory effect of combination with DDP on prostate cancer RM-1 allografts in mice; type: in vivo, mouse RM-1 cells in female C57/BL6 mice
Experimental: Experimental animal: female C57/BL6 mice provided by Beijing Vital River Laboratory Animal Technology Co., Ltd.
Experimental method: Female C57/BL6 mice were subcutaneously inoculated with mouse prostate RM-1 cells. Six days after inoculation, the mice were grouped when the mean tumor volume was about 140 mm^3 (d0). Drugs were administered intravenously (except that DDP was administered intraperitoneally) at d0, d2, d4, d6, d8, and d10 for a total of 6 times. The experiment was terminated at d15. In the A1 high-dose group, A1 was administered at a dose of 12 mg/kg for the first three times and 6 mg/kg for the last three times, with a cumulative dose of 54 mg/kg; in the A1 low-dose group, A1 was administered at a dose of 6 mg/kg for six times, with a cumulative dose of 36 mg/kg; in the DPP group, DPP was administered at a dose of 1 mg/kg for six times, with a cumulative dose of 6 mg/kg; in the vehicle control group, 5% glucose injection (at an equal volume to A1 high-dose group) was administered; in the A1+DDP-1 group, A1 was administered at a dose of 6 mg/kg for six times, with a cumulative dose of 36 mg/kg, and DPP was administered at a dose of 1 mg/kg for six times, with a cumulative dose of 6 mg/kg; in the A1+DDP-2 group, A1 was administered at a dose of 12 mg/kg for the first three times and 6 mg/kg for the last three times with a cumulative dose of 54 mg/kg, and DPP was administered at a dose of 1 mg/kg for six times, with a cumulative dose of 6 mg/kg. During the experiment, the body weight and tumor volume of animals were monitored three times a week, and the values of the tumor volume (TV), relative tumor volume (RTV), and relative tumor proliferation rate (T/C) were calculated.
Methods for drug preparation: A1: the paclitaxel cationic liposome was dissolved by adding water for injection, and then diluted with glucose and sodium chloride injection to the desired concentration; DDP: the DDP powder was dissolved in 5% glucose injection and subjected to ultrasound to formulate the desired concentration.

[3] = system: human triple-negative breast cancer MDA-MB-231 xenografts; experiment: Inhibitory effect on human triple-negative breast cancer MDA-MB-231 xenografts in mice; type: in vivo, human cells in female NOD/SCID mice; conditions: dose 400 mg/kg po
Experimental: Experimental animal: female NOD/SCID mice provided by Beijing Vital River Laboratory Animal Technology Co., Ltd.
Experimental method: Female NOD/SCID mice were subcutaneously inoculated with human triple-negative breast cancer MDA-MB-231 cells. 7 days after inoculation, the mice were divided into 7 groups when the mean tumor volume was 120 to 130 mm^3 (d0), namely, the vehicle control group (5% glucose injection), the 6 mg/kg of A1 group, the 3 mg/kg or 6 mg/kg of A1+400 mg/kg of capecitabine for injection (CAP) group, the 6 mg/kg of paclitaxel injection (Taxol) group, the 6 mg/kg of Taxol+400 mg/kg of CAP group, and the 400 mg/kg of CAP group, respectively. The CAP for injection was administered intragastrically twice a week and the other drugs were administered intravenously twice a week for a total of 7 times (d0, d3, d7, d10, d14, d17, and d21). The experiment was terminated at d28. During the experiment, the body weight and tumor volume of animals were monitored twice a week, and the tumor volume (TV) was calculated. At the end of the experiment, the tumor weight was weighed and the tumor weight inhibition rate was calculated.
Methods for drug preparation: CAP was prepared by diluting with water for injection to the desired concentration, and the rest of drugs were prepared according to the method described in Example 3.

Nc1ccn([C@@H]2O[C@H](CO)[C@@H](O)C2(F)F)c(=O)n1 [GME, gemcitabine]
Tumor Volume d27 ([1]; dose 20 mg/kg ip x5, x ± sd, n = 10): 720.9 ± 152.8** mm^3 | Tumor Volume d0 ([1]; dose 20 mg/kg ip, d0 at grouping, before dosing, x ± sd, n = 10): 227.3 ± 52.8 mm^3 | Tumor Weight Inhibition Rate ([1]; dose 20 mg/kg ip, end of experiment (d27)): 48.4% | Tumor Weight ([1]; dose 20 mg/kg ip, end of experiment (d27), x ± sd, n = 10): 0.8238 ± 0.3253 g

N.N.[Cl][Pt][Cl] [DDP, Cisplatin]
Tumor Volume d15 ([2]; cumulative dose 6 mg/kg (1 mg/kg x6) i.p., d0-d10, x ± sd, n = 9): 3494.6 ± 710.9 mm^3 | Tumor Volume d0 ([2]; cumulative dose 6 mg/kg (1 mg/kg x6) i.p., d0 at grouping, before dosing, x ± sd, n = 9): 145.1 ± 22.8 mm^3 | T/C ([2]; cumulative dose 6 mg/kg i.p., d15): 77.1% | RTV ([2]; cumulative dose 6 mg/kg i.p., d15, x ± sd, n = 9): 24.9 ± 7.6

CCCCCOC(=O)Nc1nc(=O)n([C@@H]2O[C@H](C)[C@@H](O)[C@H]2O)cc1F [CAP, capecitabine]
Tumor Volume d20 ([3]; 7 times, x ± sd, n = 10): 1708.3 ± 564.8** mm^3 | Tumor Volume d0 ([3]; d0 at grouping, before dosing, x ± sd, n = 10): 124.5 ± 19.4 mm^3 | Tumor Weight Inhibition Rate ([3]; end of experiment (d28)): 33.4% | Tumor Weight ([3]; end of experiment (d28), x ± sd, n = 10): 1.3679 ± 0.2649 g
